Series [1] is described as follows: Half life in Sprague-Dawley rat at 1 mg/kg, iv by LC-MS analysis. It is filed as ADME, organism-based. The conditions noted are these: in vivo.
Series [2] deals with Mus musculus. The experiment in a line: Decrease in E-cadherin level in BALB/c mouse xenografted with MDA-MB-231 cells in tumor tissue at 25 mg/kg, po by immunohistochemistry analysis. It is filed as functional, organism-based.
For series [3], the system named is MDA-MB-436. Put plainly: Induction of apoptosis in human MDA-MB-436 cells assessed as increase in apoptotic cells incubated for 24 hrs by Hoechst 33258 staining under a fluorescence microscopy. Type of series: functional, cell-based.
Series [4] in a line: Toxicity in BALB/c mouse xenografted with MDA-MB-231 cells assessed as uric acid level in blood at 300 mg/kg, po. Type of series: organism-based. The conditions noted are these: in vivo.
For a further series, the system named is HDLEC. Put plainly: Upregulation of E-cadherin protein expression in human dermal lymphatic endothelial cells incubated for 24 hrs by Western blot analysis. Type of series: functional.
Series [5] deals with MDA-MB-231. Put plainly: Downregulation of MMP2 protein expression in human MDA-MB-231 cells up to 10 uM incubated for 24 hrs by Western blot analysis. It is filed as functional, cell-based. The conditions noted are these: dose microM <=10, time 24.0 hrs.
The test system of series [6] is MDA-MB-436. Put plainly: Induction of apoptosis in human MDA-MB-436 cells assessed as cleaved caspase 3 up to 10 uM incubated for 24 hrs by Western blotting analysis. Type of series: functional, cell-based. The conditions noted are these: dose microM <=10, time 24.0 hrs. For orientation: Immunoblotting shows a protein as a band on a membrane.
Series [7] deals with Vascular endothelial growth factor receptor 3 (Mus musculus) (UniProt P35917). The experiment in a line: In vivo inhibition of VEGFR3 phosphorylation in BALB/c mouse xenografted with MDA-MB-231 cells assessed as decrease in STAT5 phosphorylation at 25 mg/kg, po by immunohistochemistry analysis. It is filed as functional, organism-based.
Chain of Vascular endothelial growth factor receptor 3 (Mus musculus) (P35917 whole entry): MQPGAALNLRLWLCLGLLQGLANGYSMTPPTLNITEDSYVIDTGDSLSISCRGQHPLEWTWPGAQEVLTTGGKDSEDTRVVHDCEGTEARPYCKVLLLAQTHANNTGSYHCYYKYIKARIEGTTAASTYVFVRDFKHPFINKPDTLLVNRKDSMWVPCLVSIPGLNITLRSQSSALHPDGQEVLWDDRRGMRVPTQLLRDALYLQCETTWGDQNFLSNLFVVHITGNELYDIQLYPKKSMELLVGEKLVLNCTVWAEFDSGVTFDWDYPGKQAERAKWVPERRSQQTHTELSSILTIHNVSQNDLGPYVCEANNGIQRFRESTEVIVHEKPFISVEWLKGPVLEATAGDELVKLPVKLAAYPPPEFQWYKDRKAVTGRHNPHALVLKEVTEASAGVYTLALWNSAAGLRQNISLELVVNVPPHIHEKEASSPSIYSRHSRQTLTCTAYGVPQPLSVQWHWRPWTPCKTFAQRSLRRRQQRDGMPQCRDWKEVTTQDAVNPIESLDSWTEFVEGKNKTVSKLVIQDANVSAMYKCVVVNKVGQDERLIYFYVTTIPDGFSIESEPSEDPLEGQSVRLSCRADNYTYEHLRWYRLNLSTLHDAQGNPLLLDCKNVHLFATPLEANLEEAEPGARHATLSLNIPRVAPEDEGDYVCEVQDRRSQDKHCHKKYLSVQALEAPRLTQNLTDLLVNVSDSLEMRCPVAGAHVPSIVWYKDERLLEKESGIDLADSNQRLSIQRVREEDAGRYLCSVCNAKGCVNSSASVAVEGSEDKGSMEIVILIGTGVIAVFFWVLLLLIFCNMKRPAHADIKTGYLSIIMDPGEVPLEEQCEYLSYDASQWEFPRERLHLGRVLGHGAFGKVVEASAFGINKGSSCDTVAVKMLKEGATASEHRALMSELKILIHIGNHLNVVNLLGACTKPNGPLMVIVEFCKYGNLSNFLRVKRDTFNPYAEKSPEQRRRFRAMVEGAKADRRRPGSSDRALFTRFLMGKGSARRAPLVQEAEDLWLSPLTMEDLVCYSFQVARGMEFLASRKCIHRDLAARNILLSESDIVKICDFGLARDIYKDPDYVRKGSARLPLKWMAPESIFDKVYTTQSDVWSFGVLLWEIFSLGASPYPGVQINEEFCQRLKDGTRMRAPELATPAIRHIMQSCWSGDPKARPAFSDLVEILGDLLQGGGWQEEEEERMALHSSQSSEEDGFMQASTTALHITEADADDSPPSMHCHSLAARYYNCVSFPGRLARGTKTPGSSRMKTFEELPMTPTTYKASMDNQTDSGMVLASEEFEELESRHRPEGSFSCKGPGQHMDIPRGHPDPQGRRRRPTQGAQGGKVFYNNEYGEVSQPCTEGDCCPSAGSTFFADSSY
Series [8] concerns Mus musculus. Put plainly: Decrease in p-VEGFR3 level in BALB/c mouse xenografted with MDA-MB-231 cells in tumor tissue at 25 mg/kg, po by immunohistochemistry analysis. It is filed as functional, organism-based.
The target of series [9] is Tyrosine-protein kinase BTK (Homo sapiens, UniProt Q06187). The experiment in a line: Inhibition of human BTK assessed as residual kinase activity at 1 uM relative to control.
Chain of Tyrosine-protein kinase BTK (Q06187 whole entry): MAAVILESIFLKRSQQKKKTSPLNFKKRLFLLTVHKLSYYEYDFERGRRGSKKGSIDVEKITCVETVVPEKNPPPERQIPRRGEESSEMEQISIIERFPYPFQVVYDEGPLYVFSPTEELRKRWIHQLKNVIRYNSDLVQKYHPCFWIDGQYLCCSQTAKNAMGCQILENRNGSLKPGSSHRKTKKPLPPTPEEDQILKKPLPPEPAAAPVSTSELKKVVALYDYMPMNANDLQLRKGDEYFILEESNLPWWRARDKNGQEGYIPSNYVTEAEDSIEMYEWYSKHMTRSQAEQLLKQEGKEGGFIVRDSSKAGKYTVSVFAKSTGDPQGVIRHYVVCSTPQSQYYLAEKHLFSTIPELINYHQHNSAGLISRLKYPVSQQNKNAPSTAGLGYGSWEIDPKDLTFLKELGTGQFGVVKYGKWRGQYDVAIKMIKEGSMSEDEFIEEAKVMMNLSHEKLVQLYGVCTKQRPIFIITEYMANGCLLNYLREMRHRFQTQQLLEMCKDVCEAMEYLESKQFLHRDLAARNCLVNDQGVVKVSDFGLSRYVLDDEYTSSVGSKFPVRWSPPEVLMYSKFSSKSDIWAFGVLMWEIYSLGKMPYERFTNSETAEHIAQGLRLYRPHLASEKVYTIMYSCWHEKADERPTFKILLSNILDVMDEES
Series [10] deals with T1, Vascular endothelial growth factor receptor 3 (Homo sapiens, UniProt P35916). Put plainly: Inhibition of VEGFR3 in human dermal lymphatic endothelial cells assessed as inhibition of ERK1/2 phosphorylation incubated for 24 hrs by Western blot analysis. The conditions noted are these: HDLEC.
T1 sequence (P35916 whole entry): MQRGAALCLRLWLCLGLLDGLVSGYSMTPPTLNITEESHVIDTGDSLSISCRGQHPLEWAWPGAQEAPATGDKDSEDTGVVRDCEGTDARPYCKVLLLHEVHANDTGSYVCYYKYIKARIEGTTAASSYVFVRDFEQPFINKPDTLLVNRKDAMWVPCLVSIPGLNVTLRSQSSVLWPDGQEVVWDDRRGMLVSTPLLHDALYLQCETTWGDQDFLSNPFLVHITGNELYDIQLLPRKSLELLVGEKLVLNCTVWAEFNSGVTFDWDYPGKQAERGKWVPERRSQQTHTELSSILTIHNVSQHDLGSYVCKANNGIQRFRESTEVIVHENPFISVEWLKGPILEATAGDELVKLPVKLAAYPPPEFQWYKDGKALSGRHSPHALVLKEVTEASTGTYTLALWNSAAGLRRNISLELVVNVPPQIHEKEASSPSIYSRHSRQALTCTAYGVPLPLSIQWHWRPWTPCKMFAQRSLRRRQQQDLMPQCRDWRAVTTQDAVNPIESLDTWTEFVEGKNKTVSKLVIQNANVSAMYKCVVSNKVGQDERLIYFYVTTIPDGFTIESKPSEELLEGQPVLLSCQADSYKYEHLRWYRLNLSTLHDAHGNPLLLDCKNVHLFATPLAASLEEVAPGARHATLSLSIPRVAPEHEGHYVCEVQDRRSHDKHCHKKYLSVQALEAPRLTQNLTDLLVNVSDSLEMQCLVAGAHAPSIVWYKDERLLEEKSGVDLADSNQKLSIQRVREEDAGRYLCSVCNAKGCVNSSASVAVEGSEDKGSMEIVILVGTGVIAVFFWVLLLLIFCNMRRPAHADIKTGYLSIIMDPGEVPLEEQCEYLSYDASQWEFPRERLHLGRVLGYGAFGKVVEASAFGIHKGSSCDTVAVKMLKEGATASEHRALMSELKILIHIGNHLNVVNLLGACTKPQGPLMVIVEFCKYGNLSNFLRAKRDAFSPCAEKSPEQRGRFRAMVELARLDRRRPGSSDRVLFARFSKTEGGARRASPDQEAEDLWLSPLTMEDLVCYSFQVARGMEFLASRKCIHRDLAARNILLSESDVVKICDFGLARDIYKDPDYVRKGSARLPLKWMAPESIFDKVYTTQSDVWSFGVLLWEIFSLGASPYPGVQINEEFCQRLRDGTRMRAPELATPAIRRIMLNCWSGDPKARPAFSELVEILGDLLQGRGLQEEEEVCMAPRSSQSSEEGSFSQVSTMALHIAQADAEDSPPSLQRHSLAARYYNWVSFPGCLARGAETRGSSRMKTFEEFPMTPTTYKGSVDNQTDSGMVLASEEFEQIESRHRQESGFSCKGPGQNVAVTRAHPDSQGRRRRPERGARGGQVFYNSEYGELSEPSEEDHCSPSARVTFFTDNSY
Series [11] has as its system MDA-MB-231. Put plainly: Induction of apoptosis in human MDA-MB-231 cells assessed as upregulation of Bax expression up to 10 uM incubated for 24 hrs by Western blotting analysis. It is filed as functional, cell-based. The conditions noted are these: dose microM <=10, time 24.0 hrs.
The target of series [12] is T1, Vascular endothelial growth factor receptor 3. Put plainly: Inhibition of VEGFR3 in human dermal lymphatic endothelial cells assessed as inhibition of AKT phosphorylation incubated for 24 hrs by Western blot analysis. Type of series: tissue-based. To be noted: HDLEC.
Series [13] concerns MDA-MB-231. Put plainly: Induction of apoptosis in human MDA-MB-231 cells assessed as upregulation of caspase 3 up to 10 uM incubated for 24 hrs by Western blotting analysis. Type of series: functional, cell-based. The conditions noted are these: dose microM <=10, time 24.0 hrs.
The subject of series [14] is Mus musculus. Put plainly: Decrease in LYVE-1 level in BALB/c mouse xenografted with MDA-MB-231 cells in tumor tissue at 25 mg/kg, po by immunohistochemistry analysis. It is filed as functional, organism-based.
Series [15] in a line: AUC (0 to infinity) in Sprague-Dawley rat at 10 mg/kg, po by LC-MS analysis. Type of series: ADME, organism-based. On the set-up: route oral, time infinity, dose 10 mg/kg. To be noted: in vivo.
Series [16] relates to Mus musculus. Put plainly: Upregulation of E-cadherin protein expression human MDA-MB-231 cells injected into vein of BALB/c mouse lung metastatic model at 50 mg/kg, po once a day measured on day 21 by […]. Type of series: functional, organism-based.
The target of series [17] is Maternal embryonic leucine zipper kinase (Homo sapiens, UniProt Q14680). Put plainly: Inhibition of human MELK.
Chain of Maternal embryonic leucine zipper kinase (Q14680 whole entry): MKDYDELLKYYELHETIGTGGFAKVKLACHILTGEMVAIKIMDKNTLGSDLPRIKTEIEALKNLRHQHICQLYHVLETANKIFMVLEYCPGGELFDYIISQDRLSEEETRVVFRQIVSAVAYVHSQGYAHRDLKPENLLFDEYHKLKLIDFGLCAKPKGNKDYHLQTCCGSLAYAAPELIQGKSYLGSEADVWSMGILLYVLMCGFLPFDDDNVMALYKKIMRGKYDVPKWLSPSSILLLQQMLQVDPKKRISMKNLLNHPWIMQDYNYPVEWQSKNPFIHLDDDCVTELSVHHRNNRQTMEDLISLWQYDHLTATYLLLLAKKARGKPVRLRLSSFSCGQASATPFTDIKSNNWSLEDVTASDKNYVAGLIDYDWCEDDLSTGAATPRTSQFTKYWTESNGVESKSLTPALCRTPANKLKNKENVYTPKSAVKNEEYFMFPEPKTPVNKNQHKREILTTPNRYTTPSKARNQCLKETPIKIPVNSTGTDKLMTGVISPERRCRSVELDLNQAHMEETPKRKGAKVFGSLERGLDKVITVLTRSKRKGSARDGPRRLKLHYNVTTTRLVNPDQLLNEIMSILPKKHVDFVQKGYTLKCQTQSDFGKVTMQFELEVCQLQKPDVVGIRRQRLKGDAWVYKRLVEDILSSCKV
Series [18] deals with MDA-MB-436. Put plainly: Induction of apoptosis in human MDA-MB-436 cells assessed as apoptotic cells at 2.5 uM incubated for 48 hrs by flow cytometry. It is filed as functional. (In general: Flow cytometry measures light scatter and fluorescence of single cells or particles in a stream.)
For series [19], the target named is T2, Vascular endothelial growth factor receptor 1 (Mus musculus) (UniProt P35969).
T2 sequence (whole entry): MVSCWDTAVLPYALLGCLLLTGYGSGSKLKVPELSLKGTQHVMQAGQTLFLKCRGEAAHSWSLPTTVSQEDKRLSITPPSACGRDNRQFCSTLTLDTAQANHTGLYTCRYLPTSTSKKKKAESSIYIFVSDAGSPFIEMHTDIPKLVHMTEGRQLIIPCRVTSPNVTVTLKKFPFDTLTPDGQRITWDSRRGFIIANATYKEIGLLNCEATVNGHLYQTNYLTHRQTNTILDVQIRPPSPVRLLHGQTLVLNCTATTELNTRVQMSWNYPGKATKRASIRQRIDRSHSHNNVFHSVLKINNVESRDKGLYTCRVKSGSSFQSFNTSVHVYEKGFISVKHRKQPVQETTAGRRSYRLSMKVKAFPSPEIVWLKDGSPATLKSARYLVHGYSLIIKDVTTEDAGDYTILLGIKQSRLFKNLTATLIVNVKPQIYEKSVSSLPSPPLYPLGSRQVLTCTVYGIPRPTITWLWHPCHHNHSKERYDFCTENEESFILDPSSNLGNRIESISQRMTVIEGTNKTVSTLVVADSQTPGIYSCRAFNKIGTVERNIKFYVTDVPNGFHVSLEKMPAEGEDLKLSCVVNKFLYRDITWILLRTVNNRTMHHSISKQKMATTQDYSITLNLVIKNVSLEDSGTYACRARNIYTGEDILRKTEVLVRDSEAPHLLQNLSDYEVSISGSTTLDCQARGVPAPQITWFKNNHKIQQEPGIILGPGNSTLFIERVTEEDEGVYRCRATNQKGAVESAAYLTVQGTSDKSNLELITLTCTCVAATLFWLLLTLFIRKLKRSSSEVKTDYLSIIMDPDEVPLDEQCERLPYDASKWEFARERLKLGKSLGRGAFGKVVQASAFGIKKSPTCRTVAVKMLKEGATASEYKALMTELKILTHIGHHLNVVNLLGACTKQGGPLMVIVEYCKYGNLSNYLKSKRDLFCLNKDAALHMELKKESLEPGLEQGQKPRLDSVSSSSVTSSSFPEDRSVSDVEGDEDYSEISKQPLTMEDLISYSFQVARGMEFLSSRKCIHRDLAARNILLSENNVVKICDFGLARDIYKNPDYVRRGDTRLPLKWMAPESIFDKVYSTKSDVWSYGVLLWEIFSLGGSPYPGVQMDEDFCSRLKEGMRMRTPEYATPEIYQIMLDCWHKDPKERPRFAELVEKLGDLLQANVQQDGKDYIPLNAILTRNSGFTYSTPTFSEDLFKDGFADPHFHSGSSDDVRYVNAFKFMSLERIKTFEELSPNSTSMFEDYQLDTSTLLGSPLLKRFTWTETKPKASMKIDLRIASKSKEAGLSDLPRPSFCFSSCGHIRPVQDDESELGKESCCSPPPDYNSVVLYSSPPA
Put plainly: In vivo inhibition of VEGFR1 phosphorylation in BALB/c mouse xenografted with MDA-MB-231 cells at 25 mg/kg, po by immunohistochemistry analysis. Type of series: functional, organism-based.

Series [20] deals with Mus musculus. Put plainly: Decrease in MMP-2 level in BALB/c mouse xenografted with MDA-MB-231 cells in tumor tissue at 25 mg/kg, po by immunohistochemistry analysis. It is filed as functional, organism-based.
In series [21] the test system is Mus musculus. The experiment in a line: Downregulation of MMP2 protein expression human MDA-MB-231 cells injected into vein of BALB/c mouse lung metastatic model at 50 mg/kg, po once a day measured on day 21 by […]. It is filed as functional, organism-based.

Structures are written as SMILES. Activity calls are given as the source filed them. The rule behind the calls is not given here.

For the molecule `CN1CCN(c2ccc(-c3cc4c(N5CCN(C(=O)Nc6ccc(Cl)c(C(F)(F)F)c6)CC5)ncnc4s3)cc2)CC1`, the half-life in [1] was 13.1 h. The outcome (in the series on Mus musculus [2]; in the series with HDLEC; in the series with MDA-MB-231 [5]; in the series with MDA-MB-436 [6]; in [7]; in the series with Mus musculus [8]) was Active. In addition, the outcome with MDA-MB-231 [11], in the series on MDA-MB-231 [13], with Mus musculus [14], in the series on Mus musculus [16], with Mus musculus [20] and with Mus musculus [21] was Active. For the same molecule, the Activity entry is “Dose-Dependent Effect” with MDA-MB-436 [3], “Non-Toxic” in series [4], 19% in series [9] and 30.5% in the series with MDA-MB-436 [18]. For the same molecule, the inhibition result in [10] and in series [12] was “Dose-Dependent Effect” each time. In addition, the AUC(0-inf) in series [15] turned out to be 12300 ng·h/mL. In addition, inhibition in series [17] was half-maximal at 700 nM (IC50). Moreover, the outcome in [19] was inactive.

As a reminder, the half-life is the time in which the quantity being followed falls by half. A low value points to fast loss. Broadly, the AUC(0-inf) is total exposure, with the tail of the curve extrapolated. A high value points to more exposure. A word on the IC50: it is the point on the concentration scale where inhibition reaches its midpoint. Read a low IC50 as greater potency.

The values above are taken from ChEMBL document CHEMBL4837240 (J Med Chem, 2021).
